Assay [1] has as its target Nitric oxide synthase 1 (Homo sapiens) (UniProt P29475). Put plainly: Inhibition of nNOS assessed as conversion of L-[3H]arginine to L-[3H]-citrulline at 50 uM after 30 mins by scintillation counting.
Assay [2] has as its target T1, Nitric oxide synthase, inducible (Homo sapiens, UniProt P35228). Briefly: Inhibition of iNOS assessed as conversion of L-[3H]arginine to L-[3H]-citrulline at 50 uM after 30 mins by scintillation counting.
Assay [3] concerns the target T1, Nitric oxide synthase, inducible. Briefly: Inhibition of iNOS assessed as conversion of L-[3H]arginine to L-[3H]-citrulline after 30 mins by scintillation counting.

By inhibition is commonly meant the relative decrease from the control value, in per cent. For orientation: IC50 means the concentration that inhibits the measured activity by half.

T1 sequence (P35228 whole entry): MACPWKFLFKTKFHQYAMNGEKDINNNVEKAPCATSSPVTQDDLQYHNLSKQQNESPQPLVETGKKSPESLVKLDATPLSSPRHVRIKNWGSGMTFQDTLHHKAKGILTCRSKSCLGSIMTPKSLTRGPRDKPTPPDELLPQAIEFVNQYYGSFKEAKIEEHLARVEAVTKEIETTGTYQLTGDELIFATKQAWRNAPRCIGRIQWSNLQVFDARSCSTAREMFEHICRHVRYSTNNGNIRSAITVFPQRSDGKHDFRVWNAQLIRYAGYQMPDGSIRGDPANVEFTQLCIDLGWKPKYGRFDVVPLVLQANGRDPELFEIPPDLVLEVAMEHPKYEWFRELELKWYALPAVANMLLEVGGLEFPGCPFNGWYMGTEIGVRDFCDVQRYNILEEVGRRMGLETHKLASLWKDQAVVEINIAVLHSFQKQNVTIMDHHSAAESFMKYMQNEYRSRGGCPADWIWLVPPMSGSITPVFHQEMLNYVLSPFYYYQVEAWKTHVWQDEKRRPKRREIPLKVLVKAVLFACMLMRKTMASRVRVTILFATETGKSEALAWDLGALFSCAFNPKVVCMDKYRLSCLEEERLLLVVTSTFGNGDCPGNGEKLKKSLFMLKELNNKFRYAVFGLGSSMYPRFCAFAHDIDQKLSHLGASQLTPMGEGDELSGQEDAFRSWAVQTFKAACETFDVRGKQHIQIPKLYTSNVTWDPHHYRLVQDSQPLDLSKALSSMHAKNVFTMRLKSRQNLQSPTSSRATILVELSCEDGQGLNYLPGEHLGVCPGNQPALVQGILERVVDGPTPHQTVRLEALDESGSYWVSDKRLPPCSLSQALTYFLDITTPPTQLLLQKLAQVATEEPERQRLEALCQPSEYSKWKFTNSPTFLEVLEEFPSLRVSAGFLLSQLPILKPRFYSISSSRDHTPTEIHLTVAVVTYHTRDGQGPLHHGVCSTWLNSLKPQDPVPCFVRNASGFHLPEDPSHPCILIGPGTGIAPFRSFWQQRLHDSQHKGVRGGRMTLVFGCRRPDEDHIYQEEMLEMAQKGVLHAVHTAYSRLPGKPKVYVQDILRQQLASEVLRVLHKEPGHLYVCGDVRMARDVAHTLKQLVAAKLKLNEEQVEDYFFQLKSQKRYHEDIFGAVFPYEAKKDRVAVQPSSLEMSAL
Chain of Nitric oxide synthase 1 (Homo sapiens) (P29475 whole entry): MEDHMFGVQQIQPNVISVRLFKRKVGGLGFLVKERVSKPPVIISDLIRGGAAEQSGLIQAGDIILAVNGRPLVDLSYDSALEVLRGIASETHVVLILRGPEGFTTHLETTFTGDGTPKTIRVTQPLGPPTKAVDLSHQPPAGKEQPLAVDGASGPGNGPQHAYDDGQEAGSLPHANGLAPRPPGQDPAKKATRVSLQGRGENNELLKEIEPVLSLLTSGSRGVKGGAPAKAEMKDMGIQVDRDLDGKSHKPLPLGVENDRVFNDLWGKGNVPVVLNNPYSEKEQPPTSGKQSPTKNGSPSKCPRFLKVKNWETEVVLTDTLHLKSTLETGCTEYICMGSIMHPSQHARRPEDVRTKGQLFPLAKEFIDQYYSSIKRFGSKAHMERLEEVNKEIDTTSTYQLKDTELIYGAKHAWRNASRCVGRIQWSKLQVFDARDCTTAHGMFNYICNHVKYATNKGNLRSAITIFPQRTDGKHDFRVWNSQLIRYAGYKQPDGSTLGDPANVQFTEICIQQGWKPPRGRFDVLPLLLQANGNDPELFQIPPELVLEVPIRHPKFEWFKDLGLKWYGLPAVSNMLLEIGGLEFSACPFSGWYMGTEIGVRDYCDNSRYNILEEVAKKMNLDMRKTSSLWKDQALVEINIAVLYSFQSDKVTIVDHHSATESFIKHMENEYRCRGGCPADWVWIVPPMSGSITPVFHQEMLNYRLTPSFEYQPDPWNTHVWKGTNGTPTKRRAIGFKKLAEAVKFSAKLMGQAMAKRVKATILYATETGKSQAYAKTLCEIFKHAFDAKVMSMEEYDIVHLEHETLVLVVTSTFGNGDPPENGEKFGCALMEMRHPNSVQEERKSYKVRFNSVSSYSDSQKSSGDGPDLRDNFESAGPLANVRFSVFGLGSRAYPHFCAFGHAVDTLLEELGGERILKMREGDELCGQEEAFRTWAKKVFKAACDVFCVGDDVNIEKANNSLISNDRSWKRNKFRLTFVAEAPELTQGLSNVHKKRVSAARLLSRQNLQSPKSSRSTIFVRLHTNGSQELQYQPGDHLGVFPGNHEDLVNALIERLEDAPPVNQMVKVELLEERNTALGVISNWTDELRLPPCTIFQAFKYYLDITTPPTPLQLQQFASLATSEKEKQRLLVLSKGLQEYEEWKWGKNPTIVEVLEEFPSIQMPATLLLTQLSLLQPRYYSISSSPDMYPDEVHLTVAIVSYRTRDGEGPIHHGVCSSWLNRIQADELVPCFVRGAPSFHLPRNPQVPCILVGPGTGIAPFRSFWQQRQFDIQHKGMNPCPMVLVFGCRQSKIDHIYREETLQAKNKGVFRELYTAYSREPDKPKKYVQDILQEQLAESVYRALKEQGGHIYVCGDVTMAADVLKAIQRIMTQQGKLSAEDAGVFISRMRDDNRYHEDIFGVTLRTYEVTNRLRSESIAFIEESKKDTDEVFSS

With `CCCCC(=O)N1N=C(c2cc(Cl)ccc2N)SC1(C)C`, the results for the inhibition in assay [1] and in assay [2] were 38% and 12.6%, respectively.
The corresponding values for `CC1(C)SC(c2cc(Cl)ccc2N)=NN1C(=O)C1CCCC1` are 8.37% and 21.3%.
On the same counts, the results for `CCCC(=O)N1N=C(c2ccccc2N)SC1(C)C` are 17.5% and 35.2%.
Take `CC1(C)SC(c2cc(Cl)ccc2N)=NN1C(=O)C1CCC1`: the results for the inhibition in assay [1] and in assay [2] were 4.56% and -4.65%, respectively.
The corresponding values for `CC1(C)SC(c2cc(Cl)ccc2N)=NN1C(=O)C1CCCCC1` are 23.1% and 7.61%.
The corresponding values for `COc1ccc(N)c(C2=NN(C(C)=O)C(C)(C)S2)c1` are 43.3% and 77.1%.
On the same counts, the results for `CCCCC(=O)N1N=C(c2ccccc2N)SC1(C)C` are 38% and 39%.
For the molecule `CCCC(=O)N1N=C(c2cc(Cl)ccc2N)SC1(C)C`, the results for the inhibition in assay [1] and in assay [2] were 27.7% and 66.2%, respectively.
Turning to `CCC(=O)N1N=C(c2cc(OC)ccc2N)SC1(C)C`, the inhibition in assay [1] came out at 8.85%; in assay [2], 73%.
The corresponding values for `COc1ccc(N)c(C2=NN(C(=O)c3ccccc3)C(C)(C)S2)c1` are 17.2% and 0%.
On to `CC1(C)SC(c2ccccc2N)=NN1C(=O)C1CCC1`, for which the figures for the inhibition in assay [1] and in assay [2] were 2.98% and 46.9%, respectively.
On the same counts, the results for `CCCCC(=O)N1N=C(c2cc(OC)ccc2N)SC1(C)C` are 14.6% and 101%.
In the case of `CC1(C)SC(c2ccccc2N)=NN1C(=O)C1CC1`, the figures for the inhibition in assay [1] and in assay [2] were 7.32% and 93%, respectively. For the same molecule, in assay [3], the IC50 turned out to be 34 µM.
Take `CC1(C)SC(c2cc(Cl)ccc2N)=NN1C(=O)c1ccccc1`: the results for the inhibition in assay [1] and in assay [2] were 23.6% and 20.8%, respectively.
On the same counts, the results for `CC1(C)SC(c2ccccc2N)=NN1C(=O)C1CCCCC1` are 6.8% and 28%.
As for `CCCC(=O)N1N=C(c2cc(OC)ccc2N)SC1(C)C`, the results for the inhibition in assay [1] and in assay [2] were 9.58% and 91.1%, respectively. Moreover, the IC50 in assay [3] stood at 29.6 µM.
For `CC(=O)N1N=C(c2cc(Cl)ccc2N)SC1(C)C`, the inhibition in assay [1] was 22.5%; in assay [2] it was 72.8%.
`CCC(=O)N1N=C(c2cc(Cl)ccc2N)SC1(C)C`: the inhibition in assay [1] worked out at 18.3%; in assay [2], 1.07%.
With `CC1(C)SC(c2cc(Cl)ccc2N)=NN1C(=O)C1CC1`, the inhibition in assay [1] stood at 21.9%; in assay [2], 23.2%.
On the same counts, the results for `COc1ccc(N)c(C2=NN(C(=O)C3CCC3)C(C)(C)S2)c1` are 13.7% and 57.8%.
On the same counts, the results for `CC1(C)SC(c2ccccc2N)=NN1C(=O)C1CCCC1` are 9.34% and 42.1%.
For `CC(=O)N1N=C(c2ccccc2N)SC1(C)C`, the inhibition in assay [1] was 13.3%; in assay [2], 22.9%.
With `COc1ccc(N)c(C2=NN(C(=O)C3CCCCC3)C(C)(C)S2)c1`, the inhibition in assay [1] came to 11.3%; in assay [2], 100%. Also, in assay [3], the IC50 is 21.9 µM.
For `COc1ccc(N)c(C2=NN(C(=O)C3CCCC3)C(C)(C)S2)c1`, the inhibition in assay [1] was determined as 17.4%; in assay [2] it was 65%.
On the same counts, the results for `CCC(=O)N1N=C(c2ccccc2N)SC1(C)C` are 24.2% and 19.2%.
On the same counts, the results for `CC1(C)SC(c2ccccc2N)=NN1C(=O)c1ccccc1` are 42.4% and 39.8%.
`COc1ccc(N)c(C2=NN(C(=O)C3CC3)C(C)(C)S2)c1`: the inhibition turned out to be 9.95% in assay [1] and 90% in assay [2]. Further, the IC50 in assay [3] was 41 µM.

The values are drawn from ChEMBL document CHEMBL1949563, “1,3,4-Thiadiazole derivatives as selective inhibitors of iNOS versus nNOS: Synthesis and structure-activity dependence” (Eur J Med Chem, 2012).
